From patent US20150359798A1, “PIPERAZINYL DERIVATIVE REDUCES HIGH-FAT DIET-INDUCED ACCUMULATION OF FAT IN THE LIVERS, […]” (priority 2011, published 2015) come the findings set out here.

Structures can show the parent of a compound that is named as a salt.

Experiment [1] has as its system ROCK II. The experiment is described as follows: ROCK II expression in HepG2 cells. The experiment is classed as cell-based. To be noted: HepG2; for RhoA/ROCK II expression: exogenous GGPP or FPP alone. As for the experimental part:
(§1) HepG2 cells were treated with various concentrations of drugs for 24 hours. Reactions were terminated by washing twice with cold PBS, and the cells were then harvested, Proteins in the whole-cell lysate were homogenized in an ice-cold lysis buffer and a protease inhibitor (Sigma-Aldrich, St. Louis, Mo., U.S.A.). The homogenate was centrifuged at 90, 000 g for 15 minutes at 4° C., and supernatant was recovered as the total cellular protein. Cytosolic and membrane fractions of HepG2 cells were prepared using a. CNM (Cytosol Nuclear Membrane) compartment protein extraction kit (BioChain Institute Inc., Hayward, Calif., U.S.A.) according to the manufacturer's instructions. All of the fractionated protein solutions were stored at -80° C. until analysis. To measure the expression levels of proteins by drugs, the total cell protein was extracted after incubation with treatments for 24 hours and then Western blotting analysis was performed as described previously.

In experiment [2] the test system is ABCA1. As to the kind of experiment: ABCA1 expression in HepG2 cells. To be noted: HepG2; for expression of ABCA1: FPP or GGPP (10 μM) alone. The experiment is classed as cell-based. As for the experimental part: as §1, with “−80°” for “-80°”
Experiment [3] has as its system PPARγ. The experiment is described as follows: PPARγ expression in HepG2 cells. The experiment is classed as cell-based. To be noted: HepG2; for expression of PPARγ: FPP or GGPP (10 μM) alone. As for the experimental part: as §1, with “−80°” for “-80°”
Experiment [4] relates to PDE-5A. As to the kind of experiment: Table 4 PDE-5A (% of control). The experiment is classed as cell-based. To be noted: control group = 100 (%).
The test system of experiment [5] is ROCKII. The experiment is described as follows: Table 4 ROCKII (% of control). It counts as cell-based. The conditions noted are these: control group = 100 (%).
For experiment [6], the system named is Rho-kinase. As to the kind of experiment: Table 3 Rho-kinase (% of control). The conditions noted are these: 10 μM; control group = 100 (%). The experiment is classed as cell-based.
For experiment [7], the system named is eNOS. As to the kind of experiment: Table 4 eNOS (% of control). It counts as cell-based. To be noted: control group = 100 (%).
For experiment [8], the system named is PPAR-γ. As to the kind of experiment: Table 3 PPAR-γ (% of control). The experiment is classed as cell-based. The conditions noted are these: 10 μM; control group = 100 (%).
The test system of experiment [9] is p-HSL. As to the kind of experiment: Table 3 p-HSL (% of control). The experiment is classed as cell-based. To be noted: 10 μM; control group = 100 (%).
In experiment [10] the test system is eNOS. The experiment is described as follows: Table 3 eNOS (% of control). The conditions noted are these: 10 μM; control group = 100 (%). The experiment is classed as cell-based.
Experiment [11] has as its system HMG CoA reductase. The experiment is described as follows: HMG CoA reductase expression in HepG2 cells (Western blotting). To be noted: HepG2, mevalonate 60, 80, 100 μM. It counts as cell-based. On the procedure: The HepG2 hepatoma cell line was purchased from the American Type Culture Collection (ATCC; Manassas, Va., U.S.A.). Cells were cultured in DMEM. The culture media was supplemented with 5% heat-Inactivated FBS, penicillin (100 U/mL) and streptomycin (100 μg/mL). Cells were grown in a humidified atmosphere containing 5% CO2 at 37° C., in which the oxygen tension in the incubator was held at 140 mmHg (20% O2, v/v; normoxic conditions).
as §1, with “−80°” for “-80°”
For orientation: Immunoblotting shows a protein as a band on a membrane.

Experiment [12] has as its system mice fed with HFD. As to the kind of experiment: HFD-fed mice, 8 weeks, gavage: serum/liver lipids, body weight, food intake. It counts as in vivo. To be noted: HFD mice, 8 weeks, 5 mg/kg. As for the experimental part: In the 8 week experiment, C57BL/6J male mice (21-22 g), after fasting, were fed a HFD as a model of hyperlipidemia for 8 weeks. During the 2 month experiments, mice fasted for one night before the experiment was changed from a standard diet (STD) to a HFD and then the mice were randomly divided into 5 groups, including 2 control and 3 treatment groups. Six mice were used in each group. […] Liver from the protection group supplemented with KMUP-1 HCl (1 mg/kg/day) were used to determine the HMG CoA reductase expression.
Within 2 months, the 3 day food intake average for each animal was measured. The weight gain and plasma lipid levels of each group were determined and compared to the non-treatment control group. Mouse blood was collected during the daytime by cardiac puncture followed by centrifugation at 90 g (Benchtop Centrifuge, U.S.A.) to separate the serum, and frozen at −80° C., for biochemical analysis using a Hitachi Clinical Analyzer 7070 (Hitachi High-Technologies Co. Tokyo, Japan). Agents used in the assays were Obtained from Merck & Co. (Kenilworth, N.J., U.S.A.). Triglyceride (TG), total cholesterol, HDL cholesterol and LDL cholesterol in mouse serum were measured by methods used in the clinic. To measure the hepatic TG, isolated liver were cut into small chips.

Where [13] appears, read: simvastatin, KMUP-1, Y27632 10^−5M, C3 exoenzyme.

For `CC(C)=CCC/C(C)=C/CC/C(C)=C/COP(=O)(O)OP(=O)(O)O` [FPP, farnesyl pyrophosphate, reference compound], the “RhoA/ROCK II expression” value in experiment [1] was “increased”. Further, the “expression of ABCA1” value in experiment [2] is “suppressed”. Further, the “expression of PPARγ” value in experiment [3] is given as “suppressed”.

Take `CC(C)=CCC/C(C)=C/CC/C(C)=C/CC/C(C)=C/COP(=O)(O)OP(=O)(O)O` [GGPP, geranylgeranyl pyrophosphate, reference compound]: the “RhoA/ROCK II expression” value in experiment [1] is listed as “increased”. In addition, the “expression of ABCA1” value in experiment [2] is “suppressed”. Also, the “expression of PPARγ” value in experiment [3] is “suppressed”.

`COc1ccccc1N1CCN(CCn2cnc3c2c(=O)n(C)c(=O)n3C)CC1` [KMUP-2 HCl] had a PDE-5A in experiment [4] of 68.8 ± 5.3%. For the same compound, the ROCKII in experiment [5] came to 40.8 ± 3.7%.

In experiment [6], `COc1ccccc1N1CCN(CCn2cnc3c2c(=O)n(C)c(=O)n3C)CC1` [KMUP-2, 7-[2-[4-(2-methoxybenzene)piperazinyl]ethyl]-1,3-dimethylxanthine] came in with a Rho-kinase of 81.9 ± 8.2%.

As for `Cl.Cn1c(=O)c2c(ncn2CCN2CCN(c3ccc([N+](=O)[O-])cc3)CC2)n(C)c1=O` [KMUP-3 HCl, 7-[2-[4-(4-nitrobenzene)piperazinyl]ethyl]-1,3-dimethyl xanthine HCl complex], the PDE-5A in experiment [4] was found to be 63.6 ± 5.2%. This compound also showed an eNOS in [7] of 148.31 ± 7.5%. The same compound displayed an ROCKII in experiment [5] of 44.5 ± 2.9%.

On to `Cn1c(=O)c2c(ncn2CCN2CCN(c3ccccc3[N+](=O)[O-])CC2)n(C)c1=O` [KMUP-3, 7-[2-[4-(2-nitrobenzene)piperazinyl]ethyl]-1,3-dimethylxanthine], for which the PPAR-γ in experiment [8] is listed as 140.8 ± 15.7%. Moreover, the p-HSL in [9] was 138.2 ± 14.4%. The eNOS in experiment [10] came out at 131.5 ± 13.7%. This compound also came in with a Rho-kinase in [6] of 79.4 ± 6.9%.

In [4], `Cn1c(=O)c2c(ncn2CCN2CCN(c3ccccc3[N+](=O)[O-])CC2)n(C)c1=O` [KMUP-4 HCl] came in with a PDE-5A of 73.4 ± 3.4%. Besides, the eNOS in experiment [7] was 135.24 ± 7.5%. Further, the ROCKII in experiment [5] was 37.6 ± 2.8%.

In experiment [8], `Cn1c(=O)c2c(ncn2CCN2CCN(c3ccccc3[N+](=O)[O-])CC2)n(C)c1=O` [KMUP-4, 7-[2-[4-(2-nitrobenzene)piperazinyl]ethyl]-1,3-dimethylxanthine] came in with a PPAR-γ of 143.7 ± 11.3%. In experiment [9], this compound registered a p-HSL of 136.5 ± 12.6%. Also, the eNOS in experiment [10] worked out at 125.6 ± 13.6%. In experiment [6], the Rho-kinase was determined as 83.7 ± 7.5%.

`Nc1nc2c(nc(Sc3ccc(Cl)cc3)n2[C@@H]2O[C@@H]3CO[P@@](=O)(S)O[C@H]3[C@H]2O)c(=O)[nH]1` [Rp-8-pCPT-cGMPS, 8-(p-chloro-phenylthio)guanosine-3,5-monophosphorothioate]: in [1] (10 μM cGMP antagonist), the “ROCK II expression” value is listed as “increased”.

Turning to `C[C@@H](N)[C@H]1CC[C@H](C(=O)Nc2ccncc2)CC1` [Y27632, reference compound], in [1] (C3 exoenzyme 5 μg/ml, Y27632 10 μM), the “ROCK II expression” value is “reduced”. In addition, in experiment [2] (setting [13]), the “ABCA1 expression (FIG. 24D)” value is on record as “increased”. Moreover, the “PPARγ expression (FIG. 24C)” value in [3] (setting [13]) is “increased”.

On to `CC(O)(CCO)CC(=O)O` (stereo not shown) [mevalonate, reference compound], for which, in experiment [11], the “HMG CoA reductase expression” value is “concentration-dependently reduced”.

`CCC(C)(C)C(=O)O[C@H]1C[C@@H](C)C=C2C=C[C@H](C)[C@H](CC[C@@H]3C[C@@H](O)CC(=O)O3)[C@H]21` [simvastatin, reference compound]: in experiment [12], the HDL cholesterol is 103.2 ± 2.5 mg/dL, the LDL cholesterol turned out to be 15.3 ± 1.3 mg/dL, the TG in serum was determined as 82.7 ± 6.3 mg/dL and the TG of liver was 34.5 ± 2.** mg/dl. Also, in experiment [12], the “Tot. chol. (total cholesterol)” value worked out at 133.7 ± 4.3 mg/dL and the “final BW (Body weight)” value is recorded as 23.9 ± 0.9 g.
